The values that follow come from ChEMBL document CHEMBL2021850, “Steroidal C-21 heteroaryl thioethers. Part 3: pregn-4-eno-[3,2-c]pyrazole fused A ring modified steroids as selective glucocorticoid receptor modulators (dissociated steroids)” (Bioorg Med Chem Lett, 2012).

The structures appear in SMILES notation.

For test [1], the target named is T1, Glucocorticoid receptor (Homo sapiens, UniProt P04150).
T1 sequence (P04150 whole entry): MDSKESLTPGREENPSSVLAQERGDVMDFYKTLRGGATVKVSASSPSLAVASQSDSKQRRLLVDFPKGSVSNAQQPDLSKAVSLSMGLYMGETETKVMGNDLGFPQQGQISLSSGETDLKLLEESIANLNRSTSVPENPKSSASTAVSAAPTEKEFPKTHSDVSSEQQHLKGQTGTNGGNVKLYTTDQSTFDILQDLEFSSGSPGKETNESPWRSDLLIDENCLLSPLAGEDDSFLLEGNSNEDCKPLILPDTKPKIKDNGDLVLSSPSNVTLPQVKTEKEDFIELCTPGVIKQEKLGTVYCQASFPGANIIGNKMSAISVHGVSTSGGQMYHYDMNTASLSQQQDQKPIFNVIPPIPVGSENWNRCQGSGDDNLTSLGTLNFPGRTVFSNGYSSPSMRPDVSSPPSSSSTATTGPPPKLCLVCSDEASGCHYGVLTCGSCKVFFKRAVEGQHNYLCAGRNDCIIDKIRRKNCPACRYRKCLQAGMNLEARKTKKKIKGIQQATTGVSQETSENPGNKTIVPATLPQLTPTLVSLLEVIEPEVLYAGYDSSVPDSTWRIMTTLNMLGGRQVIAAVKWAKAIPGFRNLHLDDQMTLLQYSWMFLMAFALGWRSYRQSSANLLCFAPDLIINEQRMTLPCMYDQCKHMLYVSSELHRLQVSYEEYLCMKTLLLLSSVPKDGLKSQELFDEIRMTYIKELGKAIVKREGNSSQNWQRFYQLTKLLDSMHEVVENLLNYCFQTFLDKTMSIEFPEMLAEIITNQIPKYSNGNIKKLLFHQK
The experiment in a line: Transactivation activity at human glucocorticoid receptor in cells co-expressing GRE by luciferase reporter gene assay relative to control. The note with it: read-out: Efficacy.

Test [2] deals with T1, Glucocorticoid receptor. The experiment in a line: Transrepression activity at glucocorticoid receptor in human H292 cells assessed as inhibition of TNF-induced IL8 production. It counts as cell-based.
Test [3] concerns the target T2, Glucocorticoid receptor (Rattus norvegicus, UniProt P06536).
T2 sequence (P06536 whole entry): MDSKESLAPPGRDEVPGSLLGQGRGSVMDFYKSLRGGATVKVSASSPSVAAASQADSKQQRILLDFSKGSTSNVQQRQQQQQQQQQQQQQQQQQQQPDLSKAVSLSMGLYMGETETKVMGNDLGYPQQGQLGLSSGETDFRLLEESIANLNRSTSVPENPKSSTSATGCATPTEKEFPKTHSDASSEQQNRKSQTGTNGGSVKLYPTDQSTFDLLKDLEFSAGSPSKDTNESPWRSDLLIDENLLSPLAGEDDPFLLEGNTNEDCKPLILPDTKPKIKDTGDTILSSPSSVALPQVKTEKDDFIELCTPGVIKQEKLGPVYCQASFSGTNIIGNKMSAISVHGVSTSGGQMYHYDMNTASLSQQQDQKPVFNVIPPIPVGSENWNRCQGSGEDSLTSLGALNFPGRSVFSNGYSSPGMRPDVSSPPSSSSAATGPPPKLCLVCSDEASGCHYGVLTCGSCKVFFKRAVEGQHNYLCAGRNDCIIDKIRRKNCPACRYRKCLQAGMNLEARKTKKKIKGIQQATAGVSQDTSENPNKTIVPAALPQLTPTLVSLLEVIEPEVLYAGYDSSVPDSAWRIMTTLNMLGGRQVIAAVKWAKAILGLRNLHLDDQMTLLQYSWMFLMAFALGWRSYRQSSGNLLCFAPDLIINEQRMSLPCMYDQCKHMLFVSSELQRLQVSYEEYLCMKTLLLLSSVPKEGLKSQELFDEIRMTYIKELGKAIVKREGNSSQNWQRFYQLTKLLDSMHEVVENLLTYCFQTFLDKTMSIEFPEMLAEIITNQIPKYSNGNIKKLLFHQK
Kind of test: Transactivation activity at glucocorticoid receptor in rat H4II-E cells assessed as induction of tyrosine aminotransferase. In kind it is ADME, cell-based.

The target of test [4] is T1, Glucocorticoid receptor. The experiment in a line: Transactivation activity at glucocorticoid receptor in human HepG2 cells assessed as induction of tyrosine aminotransferase. In kind it is ADME, cell-based.

In the case of `C[C@]12Cc3cnn(C4CCCCC4)c3C=C1CC[C@@H]1[C@@H]2[C@@H](O)C[C@@]2(C)[C@H]1CC[C@]2(O)C(=O)CSc1ccccn1`, the Emax on Glucocorticoid receptor [1] was 87%. Also, on Glucocorticoid receptor [2], the IC50 was found to be 0.0044 µM.
Take `Cn1c(SCC(=O)[C@@]2(O)CC[C@H]3[C@@H]4CCC5=Cc6c(cnn6C6CCCCC6)C[C@]5(C)[C@H]4[C@@H](O)C[C@@]32C)nc2ccccc21`: the Emax on Glucocorticoid receptor [1] worked out at 75%. In addition, the concentration for half-maximal inhibition (IC50) at Glucocorticoid receptor [3] came out at 1 µM; at Glucocorticoid receptor [2], 0.0066 µM.
Regarding `C[C@]12Cc3cnn(-c4ccc(F)cc4)c3C=C1CC[C@@H]1[C@@H]2[C@@H](O)C[C@@]2(C)[C@H]1CC[C@]2(O)C(=O)COc1ccc2ccccc2c1`, the IC50 stood at 0.0292 µM at Glucocorticoid receptor [4], 0.058 µM at Glucocorticoid receptor [3] and 0.00106 µM at Glucocorticoid receptor [2].
Take `C[C@]12Cc3cnn(-c4ccc(F)cc4)c3C=C1CC[C@@H]1[C@@H]2[C@@H](O)C[C@@]2(C)[C@H]1CC[C@]2(O)C(=O)COc1cnc2ccccc2n1`: the IC50 at Glucocorticoid receptor [4] was 0.0987 µM; on Glucocorticoid receptor [2] it was 0.00189 µM.
Consider `C[C@]12Cc3cnn(C4CCCCC4)c3C=C1CC[C@@H]1[C@@H]2[C@@H](O)C[C@@]2(C)[C@H]1CC[C@]2(O)C(=O)CSc1cnc2ccccc2n1`, for which the Emax at Glucocorticoid receptor [1] came to 84%. For the same compound, the IC50 on Glucocorticoid receptor [2] was 0.0124 µM.
On to `C[C@]12Cc3cnn(-c4ccc(F)cc4)c3C=C1CC[C@@H]1[C@@H]2[C@@H](O)C[C@@]2(C)[C@H]1CC[C@]2(O)C(=O)CSc1ccc2ccccc2n1`, for which the 50% inhibitory concentration (IC50) on Glucocorticoid receptor [4] worked out at 0.0183 µM; at Glucocorticoid receptor [3], 0.0243 µM; on Glucocorticoid receptor [2], 0.0053 µM.
Take `C[C@]12Cc3cnn(-c4ccc(F)cc4)c3C=C1CC[C@@H]1[C@@H]2[C@@H](O)C[C@@]2(C)[C@H]1CC[C@]2(O)C(=O)COc1ccc2ccccc2n1`: the values for the IC50 at Glucocorticoid receptor [3] and at Glucocorticoid receptor [2] were 0.0447 µM and 0.0018 µM, respectively.
Take `C[C@]12CCC(=O)C=C1CC[C@@H]1[C@@H]2[C@@H](O)C[C@@]2(C)[C@H]1CC[C@]2(O)C(=O)CSc1nnc(-c2ccccc2)o1`: at Glucocorticoid receptor [1], the Emax was found to be 54%. Further, on Glucocorticoid receptor [2], the IC50 amounted to 0.0292 µM.
Consider `COc1ccc(-n2ncc3c2C=C2CC[C@@H]4[C@H]([C@@H](O)C[C@@]5(C)[C@H]4CC[C@]5(O)C(=O)CSc4nc5ccccc5s4)[C@@]2(C)C3)cc1`, for which the half-inhibitory concentration (IC50) at Glucocorticoid receptor [2] amounted to 0.107 µM.
For `C[C@]12Cc3cnn(-c4ccccn4)c3C=C1CC[C@@H]1[C@@H]2[C@@H](O)C[C@@]2(C)[C@H]1CC[C@]2(O)C(=O)CSc1nc2ccccc2s1`, the IC50 on Glucocorticoid receptor [2] amounted to 0.179 µM.
As for `C[C@]12Cc3cnn(-c4ccc(F)cc4)c3C=C1CC[C@@H]1[C@@H]2[C@@H](O)C[C@@]2(C)[C@H]1CC[C@]2(O)C(=O)COc1nc2ccccc2s1`, the IC50 on Glucocorticoid receptor [3] was 0.084 µM; at Glucocorticoid receptor [2], 0.0021 µM.
`C[C@]12CCC(=O)C=C1CC[C@@H]1[C@@H]2[C@@H](O)C[C@@]2(C)[C@H]1CC[C@]2(O)C(=O)CSc1nc2ncccc2o1`: the Emax at Glucocorticoid receptor [1] turned out to be 37%. Moreover, the IC50 at Glucocorticoid receptor [2] stood at 0.0613 µM.
With `C[C@]12Cc3cnn(-c4ccc(F)cc4)c3C=C1CC[C@@H]1[C@@H]2[C@@H](O)C[C@@]2(C)[C@H]1CC[C@]2(O)C(=O)CSc1nc2ccccc2s1`, the IC50 was 0.101 µM on Glucocorticoid receptor [4], 0.0241 µM at Glucocorticoid receptor [3] and 0.0017 µM at Glucocorticoid receptor [2].
For the compound `C[C@]12Cc3cnn(C4CCCCC4)c3C=C1CC[C@@H]1[C@@H]2[C@@H](O)C[C@@]2(C)[C@H]1CC[C@]2(O)C(=O)CSc1ccc2ccccc2n1`, at Glucocorticoid receptor [1], the Emax was 71%. Further, at Glucocorticoid receptor [2], the IC50 came to 0.0447 µM.
With `C[C@]12Cc3cnn(-c4ccc(F)cc4)c3C=C1CC[C@@H]1[C@@H]2[C@@H](O)C[C@@]2(C)[C@H]1CC[C@]2(O)C(=O)CSc1nccc2ccccc12`, the figures for the IC50 at Glucocorticoid receptor [4], on Glucocorticoid receptor [3] and at Glucocorticoid receptor [2] were 0.0373 µM, 0.0654 µM and 0.0016 µM, respectively.
With `Cn1c(OCC(=O)[C@@]2(O)CC[C@H]3[C@@H]4CCC5=Cc6c(cnn6-c6ccc(F)cc6)C[C@]5(C)[C@H]4[C@@H](O)C[C@@]32C)nc2ccccc21`, the values for the IC50 on Glucocorticoid receptor [3] and at Glucocorticoid receptor [2] were 0.078 µM and 0.0029 µM, respectively.
For `C[C@]12Cc3cnn(-c4ccc(F)cc4)c3C=C1CC[C@@H]1[C@@H]2[C@@H](O)C[C@@]2(C)[C@H]1CC[C@]2(O)C(=O)CSc1ncccn1`, the IC50 came out at 0.0377 µM on Glucocorticoid receptor [4], 0.0143 µM at Glucocorticoid receptor [3] and 0.0006 µM on Glucocorticoid receptor [2].
For `Cn1c(SCC(=O)[C@@]2(O)CC[C@H]3[C@@H]4CCC5=Cc6c(cnn6-c6ccc(F)cc6)C[C@]5(C)[C@H]4[C@@H](O)C[C@@]32C)nc2ccccc21` the same measures were 0.0887 µM, 0.174 µM and 0.0011 µM.
Take `C[C@]12Cc3cnn(-c4ccc(F)cc4)c3C=C1CC[C@@H]1[C@@H]2[C@@H](O)C[C@@]2(C)[C@H]1CC[C@]2(O)C(=O)CSc1nc2ccccc2c(=O)[nH]1`: the IC50 at Glucocorticoid receptor [4] was found to be 0.0935 µM; at Glucocorticoid receptor [3], 0.0865 µM; at Glucocorticoid receptor [2], 0.003 µM.
`Cc1cccc(SCC(=O)[C@@]2(O)CC[C@H]3[C@@H]4CCC5=CC(=O)CC[C@]5(C)[C@H]4[C@@H](O)C[C@@]32C)n1`: the Emax on Glucocorticoid receptor [1] worked out at 18%. For the same compound, on Glucocorticoid receptor [2], the half-inhibitory concentration (IC50) amounted to 0.127 µM.
For the compound `C[C@]12Cc3cnn(C4CCCCC4)c3C=C1CC[C@@H]1[C@@H]2[C@@H](O)C[C@@]2(C)[C@H]1CC[C@]2(O)C(=O)CSc1nc2ccccc2s1`, the Emax at Glucocorticoid receptor [1] is 78%. Besides, the IC50 turned out to be 0.4 µM on Glucocorticoid receptor [4], 0.0547 µM at Glucocorticoid receptor [3] and 0.0071 µM at Glucocorticoid receptor [2].
Consider `C[C@]12Cc3cnn(-c4ccc(F)cc4)c3C=C1CC[C@@H]1[C@@H]2[C@@H](O)C[C@@]2(C)[C@H]1CC[C@]2(O)C(=O)CSc1ccc2ccccc2c1`, for which the figures for the half-maximal inhibitory concentration (IC50) on Glucocorticoid receptor [4], on Glucocorticoid receptor [3] and on Glucocorticoid receptor [2] were 0.0305 µM, 0.0525 µM and 0.00072 µM, respectively.
For the compound `C[C@]12Cc3cnn(-c4ccccc4)c3C=C1CC[C@@H]1[C@@H]2[C@@H](O)C[C@@]2(C)[C@H]1CC[C@]2(O)C(=O)CSc1nc2ccccc2s1`, the Emax at Glucocorticoid receptor [1] came to 89%. In addition, the figures for the IC50 on Glucocorticoid receptor [4], at Glucocorticoid receptor [3] and at Glucocorticoid receptor [2] were 0.165 µM, 0.0573 µM and 0.0075 µM, respectively.
On to `C[C@]12CCC(=O)C=C1CC[C@@H]1[C@@H]2[C@@H](O)C[C@@]2(C)[C@H]1CC[C@]2(O)C(=O)CSc1ccc(Cl)c(Cl)c1`, for which the Emax on Glucocorticoid receptor [1] worked out at 28%. Also, the concentration for half-maximal inhibition (IC50) at Glucocorticoid receptor [2] is 0.0272 µM.
As to `C[C@]12Cc3cnn(-c4ccc(F)cc4)c3C=C1CC[C@@H]1[C@@H]2[C@@H](O)C[C@@]2(C)[C@H]1CC[C@]2(O)C(=O)CSc1ccccn1`, the results for the IC50 at Glucocorticoid receptor [4], at Glucocorticoid receptor [3] and on Glucocorticoid receptor [2] were 0.0047 µM, 0.0045 µM and 0.0005 µM, respectively.
Turning to `C[C@]12CCC(=O)C=C1CC[C@@H]1[C@@H]2[C@@H](O)C[C@@]2(C)[C@H]1CC[C@]2(O)C(=O)CSc1nc2ccccc2s1`, the Emax on Glucocorticoid receptor [1] was 30%.
As for `C[C@]12Cc3cnn(C4CCCCC4)c3C=C1CC[C@@H]1[C@@H]2[C@@H](O)C[C@@]2(C)[C@H]1CC[C@]2(O)C(=O)CSc1nc2ccccc2o1`, on Glucocorticoid receptor [1], the Emax came out at 72%. Further, the figures for the IC50 on Glucocorticoid receptor [4], at Glucocorticoid receptor [3] and on Glucocorticoid receptor [2] were 0.0821 µM, 0.0316 µM and 0.00312 µM, respectively.
As to `C[C@]12Cc3cnn(C4CCOCC4)c3C=C1CC[C@@H]1[C@@H]2[C@@H](O)C[C@@]2(C)[C@H]1CC[C@]2(O)C(=O)CSc1nc2ccccc2s1`, at Glucocorticoid receptor [2], the half-inhibitory concentration (IC50) came out at 0.0864 µM.
For the compound `C[C@]12Cc3cnn(-c4ccccc4)c3C=C1CC[C@@H]1[C@@H]2[C@@H](O)C[C@@]2(C)[C@H]1CC[C@]2(O)C(=O)COc1cnc2ccccc2n1`, the Emax on Glucocorticoid receptor [1] came out at 56%. Further, the IC50 on Glucocorticoid receptor [2] was found to be 0.0037 µM.
